# According to patent publication US20220089540A1 (Board of Trustees of Michigan State University, priority 2019, published 2022):
# Several values for one entry are separate records, joined by “and”; a condition that tells them apart may be missing. Identical values can stand only once. Like-named read-outs stand apart in the source and are kept apart here.
# What was measured:
# [1] = target: T1, human RXRa (Homo sapiens, UniProt P19793); test: RXR activation luciferase reporter assay; type: cell-based; conditions: for RXR assay: luciferase, Control 0, higher numbers indicate higher potency; for EC50: Table 6, read-out: RXRα activation (EC50)
# T1 sequence (P19793 1-462): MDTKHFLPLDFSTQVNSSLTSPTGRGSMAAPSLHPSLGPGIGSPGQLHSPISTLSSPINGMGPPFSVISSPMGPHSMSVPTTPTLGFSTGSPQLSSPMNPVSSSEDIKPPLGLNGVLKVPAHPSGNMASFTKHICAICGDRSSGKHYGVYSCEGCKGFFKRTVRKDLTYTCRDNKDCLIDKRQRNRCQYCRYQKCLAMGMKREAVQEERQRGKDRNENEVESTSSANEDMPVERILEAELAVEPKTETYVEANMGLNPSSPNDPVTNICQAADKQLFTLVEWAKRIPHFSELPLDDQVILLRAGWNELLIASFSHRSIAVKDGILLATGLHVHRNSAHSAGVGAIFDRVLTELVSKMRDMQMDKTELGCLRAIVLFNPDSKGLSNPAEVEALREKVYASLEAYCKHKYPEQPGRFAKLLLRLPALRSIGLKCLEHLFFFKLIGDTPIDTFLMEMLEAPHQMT
# From the text: Rexinoids are agonists for the retinoid X receptors (RXRs). In this assay, the human RXRa promoter is functionally linked to a luciferase reporter gene. Changes in luciferase expression served as a sensitive surrogate measure of RXR activity. Higher numbers indicate higher potency.
# [2] = test system: inducible nitric oxide synthase (iNOS); test: iNOS suppression / NO assay in LPS-stimulated macrophages or RAW264.7 cells (Griess reaction); type: cell-based, mouse; conditions: for activity at 0.125 µM / activity at 0.5 µM / activity at 0.1 µM / activity at 0.3 µM: Mus musculus; for activity at 0.1 µM / activity at 0.3 µM: RAW264.7, 24 h; for activity at 0.1 µM: at 100 nM
# Experimental: Macrophages or RAW264.7 like-cells were treated with various concentrations of rexinoids and stimulated with lipopolysaccaride (LPS) to activate inducible nitric oxide synthase (iNOS) to produce nitric oxide. This in vitro iNOS assay was rapid, reproducible, quantitative and predictive. Nitric oxide is implicated in the apoptosis of cancer cells via regulation of RXRs. There is a tight correlation between the % reduction of iNOS and efficacy in preclinical lung cancer models. Lower numbers indicate higher efficacy.
# RAW264.7 cells were incubated with 300 nM rexinoids and stimulated with 1-2 ng/ml lipopolysaccaride (LPS) for 24 hours to activate inducible nitric oxide synthase (iNOS) to produce nitric oxide. Nitric oxide released into the media was measured by the Griess reaction.
# Also, for Table 6, the iNOS suppression is the percent of the LPS-stimulated control where the compounds were measured at 100 nM or 300 nM.
# Macrophages or RAW264.7 cells were treated with various concentrations of rexinoids listed in Table 7 and stimulated with lipopolysaccaride (LPS) to activate inducible nitric oxide synthase (iNOS) to produce nitric oxide. Nitric oxide (NO) is implicated in the apoptosis of cancer cells via regulation of RXRs. There is a tight correlation between the % reduction of iNOS and efficacy in preclinical lung cancer models. The in vitro iNOS assay is rapid, reproducible, quantitative and predictive, as NO production is measured in culture medium using the Griess reaction. Values are either presented as % inhibition or IC50 values.
# [3] = test system: SREBP; test: SREBP induction in human liver (HepG2) cells, RT-PCR; type: cell-based; design: key to SREBP: fold induction vs DMSO control; conditions: for SREBP: 300 nM, Control 1.00, lower numbers indicate better safety, Table 2; for SREBP activation: fold induction compared to DMSO, several values per cell, Table 6
# Experimental: The SREBP transcription factor is involved in triglyceride synthesis, and its activation correlates with increased triglycerides in vivo. […] Lower numbers indicate better safety. […] Lower numbers indicate better safety. Also, for Table 6, SREBP activation was measured as fold induction compared to DMSO, where a lower value indicates the compound is an improvement over a control.
# [4] = test system: PD-L1; test: PD-L1 induction in macrophages or RAW264.7 cells with cancer cell conditioned media (flow cytometry); type: cell-based, mouse; conditions: 100 nM; Table 2; Control 39.8; higher numbers indicate better upregulation
# Experimental: RAW 264.7 mouse macrophage-like (ATCC) and E18-14C-27 (Wu et al., Cancer Res. 62, 6376-6380 (2002)) cells were cultured in DMEM supplemented with 10% fetal bovine serum (FBS). RAW 264.7 cells were cultured at 50000/well in a 6 well plate for 24 hours to determine PD-L1 levels. E18-14C-27 cells were cultured for 72 hours in the presence of LG268 for protein levels. Conditioned media was collected from E18-14C-27 at 60-70% confluence for 24 hours; media was then collected and centrifuged at 900 rpm for 5 minutes to eliminate any cell debris.
# For PD-L1 staining, RAW 264.7 cells were plated at 25000 cells/ml in 6 well plates for 24 hours before adding conditioned media from E18-14C-27 and LG268. RAW 264.7 cells were cultured for additional 24 hours with E18-14C-27 conditioned media and LG268. […] THP-1 cells were stained and analyzed for the levels of PD-L1 following the same protocol.
# Inhibitory receptors on lymphocytes such as PD-1 (programmed cell death protein 1) are important immune checkpoints that protect against autoimmunity as the interaction between PD-L1 (ligand) and the PD-1 receptor expressed on immune cells suppresses T cell activity. Immuno-oncology is revolutionizing cancer treatment, and enormous research efforts are ongoing to identify drugs that upregulate PD-L1 so that they can be combined with checkpoint inhibitors to boost efficacy. Macrophages or RAW264.7 cells are treated with conditioned media from cancer cells and rexinoids, and PD-L1 expression determined by flow cytometry. Higher numbers indicate better upregulation of PD-LI.
# Using methods described herein, macrophages or RAW264.7 cells were treated with selected rexinoids and with conditioned media from cancer cells. Structures of the rexinoids are shown below.
# PD-L1 expression was determined by flow cytometry.
# [5] = LogD at pH 7.4; type: physicochemical; conditions: pH 7.4 buffer
# Experimental: Note that for Table 6, Log D is the distribution constant, which is descriptor of the lipophilicity of a molecule. This was determined using an aqueous phase that was adjusted to pH 7.4 using a buffer.
# [6] = Triglycerides in rodent models; type: in vivo
# [7] = test system: Lung Cancer Model; test: Lung cancer model rank order; type: in vivo
# [8] = percent of the LPS-stimulated control, lower is better, Table 6
# [9] = at 300 nM, percent of the LPS-stimulated control, lower is better, Table 6, read-out: iNOS suppression
# [10] = RAW264.7, 125 nM, Control 100, lower numbers indicate higher efficacy, read-out: NO Assay
# [11] = RAW264.7, 500 nM, Control 100, lower numbers indicate higher efficacy, read-out: NO Assay
structure (smiles),measurement,setting,value
"CCN(c1ccc(C(=O)O)cc1)c1cc(C(C)(C)C)cc(C(C)(C)C)c1 [Compound 8, 4-[(3,5-di-tert-butylphenyl)(ethyl)amino]benzoic Acid]",RXR assay,[1]; 100 nM,1009
same,RXR assay,[1]; 2500 nM,23514
same,activity at 0.125 µM,"[2]; RAW264.7, read-out: NO Assay",> 80%
same,activity at 0.5 µM,"[2]; RAW264.7, read-out: NO Assay",31.5%
same,SREBP,[3],1.95
same,PD-L1,[4],31.2
CCCN(c1cc(C(C)(C)C)cc(C(C)(C)C)c1)c1ccc(C(=O)O)cn1 [drawing 117],activity at 0.1 µM,[2]; [8],22%
same,activity at 0.3 µM,[2]; [9],13%
same,logD,[5],3.4
same,SREBP activation,[3],1.95 fold induction and 2.9 fold induction
CCN(c1cc(C(C)(C)C)cc(C(C)(C)C)c1)c1ncc(C(=O)O)cn1 [drawing 106],activity at 0.3 µM,[2]; [9],55%
same,logD,[5],2.3
same,SREBP activation,[3],3.5 fold induction and 1.8 fold induction
CCCCN(c1cc(C(C)(C)C)cc(C(C)(C)C)c1)c1ccc(C(=O)O)cn1 [Compound 19],RXR assay,[1]; 100 nM,13422
same,RXR assay,[1]; 2500 nM,24350
same,activity at 0.125 µM,[2]; [10],45.6%
same,activity at 0.5 µM,[2]; [11],9.4%
same,SREBP,[3],4.77
same,PD-L1,[4],50.2
C=C(c1ccc(C(=O)O)cc1)c1ccc(OCC(C)C)c(C(C)C)c1 [drawing 110],activity at 0.3 µM,[2]; [9],75%
same,logD,[5],3
same,SREBP activation,[3],2 fold induction
C=C(c1ccc(C(=O)O)cc1)c1cc(C(C)C)c(OCC)cc1C [drawing 115],activity at 0.3 µM,[2]; [9],45%
same,logD,[5],2.6
same,SREBP activation,[3],1.4 fold induction
CCN(c1cc(C(F)(F)F)cc(C(F)(F)F)c1)c1ccc(C(=O)O)cn1 [drawing 119],activity at 0.1 µM,[2]; [8],24%
same,activity at 0.3 µM,[2]; [9],15%
same,logD,[5],1.5
same,SREBP activation,[3],0.95 fold induction and 1.2 fold induction
CCN(c1ccc(C(=O)O)cc1)c1cc(C(C)(C)C)c(OC)c(C(C)(C)C)c1 [drawing 121],activity at 0.3 µM,[2]; [9],74%
same,logD,[5],3.8
same,SREBP activation,[3],1.45 fold induction
CC(C)(C)c1cc(N(CC2CC2)c2ccc(C(=O)O)cn2)cc(C(C)(C)C)c1 [drawing 118],activity at 0.1 µM,[2]; [8],19%
same,activity at 0.3 µM,[2]; [9],13%
same,logD,[5],3.4
CC(C)(C)c1cc(C(C)(C)C)cc(C2(c3ccc(C(=O)O)cn3)CC2)c1,logD,[5],2.8
CCN(c1ccc(C(=O)O)cc1)c1cc(C(C)C)c(OCC(C)C)cc1C [drawing 120],activity at 0.3 µM,[2]; [9],86%
same,logD,[5],3.8
same,SREBP activation,[3],1.3 fold induction
C=C(c1ccc(C(=O)O)cc1)c1cc(C(C)C)c(OC(C)C)cc1C [drawing 114],activity at 0.3 µM,[2]; [9],40%
same,logD,[5],3.1
same,SREBP activation,[3],4.7 fold induction
"C/C(=C/C=C/C(C)=C/C(=O)O)c1cc(C(C)(C)C)cc(C(C)(C)C)c1OCC(F)F [LG101506, reference compound]",RXR assay,[1]; 100 nM,1077
same,RXR assay,[1]; 2500 nM,558
same,NO Assay,"[2]; 125 nM, Control 100, lower numbers indicate higher efficacy",56.3
same,NO Assay,"[2]; 500 nM, Control 100, lower numbers indicate higher efficacy",16.3
same,SREBP,[3],1.12
same,PD-L1,[4],67.2
"C=C(c1ccc(C(=O)O)cc1)c1cc(C(C)(C)C)cc(C(C)(C)C)c1 [Compound 3, 4-[1-(3,5-di-tert-butylphenyl)ethenyl]benzoic Acid]",RXR assay,[1]; 100 nM,523
same,RXR assay,[1]; 2500 nM,8163
same,activity at 0.3 µM,[2]; read-out: iNOS (300 nM),~65%
same,activity at 0.125 µM,"[2]; RAW264.7, read-out: NO Assay",42.5%
same,activity at 0.5 µM,"[2]; RAW264.7, read-out: NO Assay",19.8%
same,SREBP,[3],1.14
same,PD-L1,[4],26.5
CCN(c1ccc(OCC(C)C)c(C(C)C)c1)c1ccc(C(=O)O)cn1 [reference compound],EC50,[1],50 to 200 nM
same,Triglyccerides (Rodent Models),[6],Modest elevation in female rats
C=C(c1ccc(C(=O)O)cc1)c1cc(C(C)C)c(OCC(C)C)cc1C [drawing 111],activity at 0.3 µM,[2]; [9],40%
same,logD,[5],3.5
same,SREBP activation,[3],1.2 fold induction
CCN(c1ccc(C(=O)O)cc1)c1cc(C(C)(C)C)cc(C(C)(C)C)c1 [drawing 104],activity at 0.3 µM,[2]; [9],43%
same,logD,[5],4
same,SREBP activation,[3],1.8 fold induction and 2.5 fold induction
Cc1cc2c(cc1-n1c(C(F)(F)F)nc3cc(C(=O)O)ccc31)C(C)(C)CCC2(C)C [reference compound],EC50,[1],1 to 25 nM
same,Triglyccerides (Rodent Models),[6],No elevation (mice)
Cc1cc(OCC(C)C)c(C(C)C)cc1C1(c2ccc(C(=O)O)cn2)CC1,logD,[5],2.6
"CCN(c1cc(C(C)(C)C)cc(C(C)(C)C)c1)c1ncc(C(=O)O)cn1 [Compound 10, 2-[(3,5-di-tert-butylphenyl)(ethyl)amino]pyrimidine-5-carboxylic Acid]",RXR assay,[1]; 100 nM,1007
same,RXR assay,[1]; 2500 nM,17963
same,activity at 0.125 µM,"[2]; RAW264.7, read-out: NO Assay",48.6%
same,activity at 0.5 µM,"[2]; RAW264.7, read-out: NO Assay",19%
same,SREBP,[3],1.44
same,PD-L1,[4],32
C/C(=C/C=C/C(C)=C/C(=O)O)c1cc(C(C)(C)C)cc(C(C)(C)C)c1OCC(F)F [drawing 96],activity at 0.1 µM,[2]; [8],30 to 35%
same,Triglyccerides (Rodent Models),[6],No Elevation
same,Lung Cancer Model Rank Order,[7],4
"CCCN(c1cc(C(C)(C)C)cc(C(C)(C)C)c1)c1ccc(C(=O)O)cn1 [Compound 13, 6-[(3,5-di-tert-butylphenyl)(propyl)amino]pyridine-3-carboxylic Acid]",RXR assay,[1]; 100 nM,16063
same,RXR assay,[1]; 2500 nM,26703
same,activity at 0.125 µM,[2]; [10],94.5%
same,activity at 0.5 µM,[2]; [11],32%
same,SREBP,[3],2.44
same,PD-L1,[4],67.9
C=C(c1ccc(C(=O)O)cc1)c1cc(C(C)(C)C)cc(C(C)(C)C)c1 [drawing 116],activity at 0.3 µM,[2]; [9],61%
same,logD,[5],3.8
CCN(c1cc(C(C)(C)C)cc(C(C)(C)C)c1)c1ccc(C(=O)O)cn1 [drawing 105],activity at 0.3 µM,[2]; [9],30%
same,logD,[5],2.9
same,SREBP activation,[3],1.6 fold induction and 2.85 fold induction and 3.1 fold induction
CCN(c1ccc2c(c1)C(C)(C)CCC2(C)C)c1ccc(C(=O)O)cn1 [reference compound],EC50,[1],1 to 25 nM
same,Triglyccerides (Rodent Models),[6],Elevated (mice)
